From patent US20240277684A1, “BLOCKADE OF CHEMOKINE (C-C MOTIF) RECEPTOR 2 DURING FLUID RESUSCITATION” (University of South Florida, priority 2022, published 2024)

System: hemorrhagic shock
Test: Example 1 second series: 30 min hemorrhagic shock, fluid resuscitation until t=300 min
Type: in vivo, rat
Protocol: In vivo animal experiments. All procedures were performed in accordance with the National Institutes of Health Guidelines for Use of Laboratory Animals and were approved by the University of South Florida Institutional Animal Care and Use Committeee (IS00008139). Male Sprague-Dawley rats (300-400 g, Envigo, Indianapolis, IN, USA). were anesthetized with 1.7% isoflurane via nose-cone inhalation with the SomnoSuite anesthesia system (Kent Scientific, Torrington, CT, USA). […] The left femoral artery was isolated and cannulated with a 24-gauge peripheral intravenous catheter to allow for blood withdrawal, hemodynamic monitoring, drug administration, and fluid resuscitation. Hemodynamics were continuously monitored with the SurgivetV6400 blood pressure monitor (Med-Electronics, Beltsville, MD, USA), and blood pressures and heart rate were recorded at 1-10 min intervals. All animals were observed over a 10 min period to ensure hemodynamic stability before start of the experiments. All experiments were performed randomized in alternating order.
To test the effects of INCB3284 and Maraviroc after HS, a Wiggers fixed pressure hemorrhage and fluid resuscitation model was used as described (Babu F S, et al., Chemokine (C-X-C motif) receptor 4 regulates lung endothelial barrier permeability during resuscitation from hemorrhagic shock. Physiol Res 2019; 68(4):675-679; Nassoiy S P, et al., Effects of the Kv7 voltage-activated potassium channel inhibitor linopirdine in rat models of haemorrhagic shock. Clin Exp Pharmacol Physiol 2018; Nassoiy S P, et al., Kv7 voltage-activated potassium channel inhibitors reduce fluid resuscitation requirements after hemorrhagic shock in rats. J Biomed Sci 2017; 24(1):8; Bach H Ht, et al., Proteasome inhibition prolongs survival during lethal hemorrhagic shock in rats. J Trauma Acute Care Surg 2013; 74(2):499-507; Bach H Ht, et al., Chemokine (C-X-C motif) receptor 4 and atypical chemokine receptor 3 regulate vascular alpha(1)-adrenergic receptor function. Mol Med 2014; 20:435-447), with slight modifications. In brief, rats were hemorrhaged to a mean arterial blood pressure (MAP) of less than or equal to 30 mmHg for a period of 30 minutes. At the end of the HS period (t=30 min), animals were injected with either vehicle (1 mL LR) or drug in 1 mL LR, followed by fluid resuscitation with 1 mL bolus injections of LR to maintain a systolic blood pressure (SBP) of 90 mmHg or a MAP of 60 mmHg. To avoid fluid overload, bolus injections of LR were limited to 1 mL/min. In the first series of experiments, animals received 1 mL of LR (n=9), 1.1 μmol/kg (n=4) or 5.5 μmol/kg (n=5) INCB3284 in 1 mL LR or […] Maraviroc (n=3) in 1 mL LR at t=30 min. Animals were then resuscitated until t=90 min. At t=0, 15, 30, 60 and 90 min, blood samples were obtained, and plasma prepared. Samples were stored at −70° C. until further processing. At t=90 min, animals were euthanized (isoflurane inhalation, bilateral pneumothorax).
In the second series of experiments, animals received 1 mL of LR (n=10) or 5 μmol/kg INCB3284 in 1 mL LR (n=8) at t=30 min. Animals were resuscitated until t=300 min. Blood samples were obtained for arterial blood gas analyses and measurements of routine laboratory parameters at time points t=0, 30, 90, 150, 210, 270 and 300 min. Death was defined as asystole or loss of a pulse pressure. At the end of the experiments, surviving animals were euthanized as described before. In animals that survived until t=300 min, a gross necropsy was performed after euthanasia, and tissue from lung, small intestine, and colon was collected for measurements of wet-weight/dry-weight ratios.
Arterial blood gases and routine laboratory parameters. Arterial blood gases, electrolytes, creatinine, lactate, hematocrit and hemoglobin were analyzed using the Element point of care veterinary blood gas, electrolyte and critical care analyzer (Cuattro Veterinary USA, Loveland, CO, USA).
Wet-weight/dry-weight ratios.

[1] = 5 μmol/kg, animals that survived until t=300 min
[2] = 5 μmol/kg, animals that survived until t=300 min, vs vehicle

COc1ccc([C@]2(O)CC[C@@H](N3CC[C@@H](NC(=O)CNC(=O)c4cccc(C(F)(F)F)c4)C3)CC2)cn1 [INCB3284]
colon wet weight/dry weight ratios, difference to vehicle [1]: did not reach statistical significance | small bowel wet weight/dry weight ratios, difference to vehicle [1]: did not reach statistical significance | lung wet weight/dry weight ratios [2]: significantly reduced | wet weight/dry weight ratios of all tissues combined [2]: significantly reduced | animals demonstrating the beginning of hemodynamic decompensation (5 μmol/kg, n=8, p<0.01 vs. vehicle): None | mortality (5 μmol/kg, until t=300 min, p<0.05): 0% | median survival time (5 μmol/kg, p<0.05 vs. vehicle): > 300 min | reduction of average fluid requirements (single dose 5 μmol/kg at t=30 min, until t=300 min, vs vehicle): 62±6% | average fluid requirements (single dose 5 μmol/kg at t=30 min, until t=300 min, p<0.05): 61.9 ± 10 mL/kg
